Our source for the IC50 values is ChEMBL document CHEMBL5154722, “Identification of new potent anticancer derivatives through simplifying the core structure and modification on their 14- hydroxyl group from oridonin” (Eur J Med Chem, 2022).

Molecules are shown by their SMILES.

Holding throughout (format): functional, cell-based
The test system of one experiment is K562. Put plainly: Antiproliferative activity against human K562 cells assessed as reduction in cell viability incubated for 72 hrs by MTT assay. The following applies: K562, 72 h. For orientation: Tetrazolium assays rely on reduction of a dye to a coloured formazan, in cell work by metabolically active cells.
Another experiment deals with MCF7. The experiment in a line: Antiproliferative activity against human MCF7 cells assessed as reduction in cell viability incubated for 72 hrs by MTT assay. The following applies: MCF7, 72 h.
The subject of another experiment is SMMC-7721. The experiment in a line: Antiproliferative activity against human […] cells assessed as reduction in cell viability incubated for 72 hrs by MTT assay. The following applies: SMMC-7721, 72 h.
In the next experiment the test system is MDA-MB-231. Put plainly: Antiproliferative activity against human MDA-MB-231 cells assessed as reduction in cell viability incubated for 72 hrs by MTT assay. The following applies: MDA-MB-231, 72 h.

By IC50 is commonly meant the midpoint of a concentration-inhibition curve. In the case of `C=C1C(=O)[C@]23[C@H](OC(=O)C4CCCCC4)[C@H]1CC[C@H]2[C@]12CCCC(C)(C)[C@H]1[C@H](O)[C@@]3(O)OC2`, the 50% inhibitory concentration (IC50) in the experiment on K562 came out at 4050 nM.
Still for that read-out and setting: the figure for `C=C1C(=O)[C@]23[C@H](OC(=O)/C=C/c4ccccc4)[C@H]1CC[C@H]2[C@]12CCCC(C)(C)[C@H]1[C@H](O)[C@@]3(O)OC2` is 1760 nM; for `C=C1C(=O)[C@]23[C@H](OC(=O)/C=C(\C)c4ccccc4)[C@H]1CC[C@H]2[C@]12CCCC(C)(C)[C@H]1[C@H](O)[C@@]3(O)OC2` it is 5320 nM.
In the case of `C=C1C(=O)[C@]23[C@H](OC(=O)CCc4ccccc4)[C@H]1CC[C@H]2[C@]12C=CCC(C)(C)[C@H]1[C@H](O)[C@@]3(O)OC2`, the half-maximal inhibitory concentration (IC50) in the experiment on K562 was 2740 nM.
Same read-out and setting: the figure for `C=C1C(=O)[C@]23[C@H](OC(=O)/C=C/c4ccc[nH]4)[C@H]1CC[C@H]2[C@]12CCCC(C)(C)[C@H]1[C@H](O)[C@@]3(O)OC2` is 1320 nM; for `C=C1C(=O)[C@]23[C@H](OC(=O)/C=C/c4ccco4)[C@H]1CC[C@H]2[C@]12CCCC(C)(C)[C@H]1C[C@@]3(O)OC2` it is 1440 nM; for `C=C1C(=O)[C@]23[C@H](OC(=O)/C=C/c4cccnc4)[C@H]1CC[C@H]2[C@]12C=CCC(C)(C)[C@H]1[C@H](O)[C@@]3(O)OC2` it is 540 nM.
On to `C=C1C(=O)[C@]23[C@H](OC(=O)C=C(C)C)[C@H]1CC[C@H]2[C@]12CCCC(C)(C)[C@H]1[C@H](O)[C@@]3(O)OC2`, for which, in the experiment on K562, the 50% inhibitory concentration (IC50) amounted to 900 nM.
For `C=C1C(=O)[C@@]23C(CC[C@@H]1[C@H]2OC(=O)c1ccc(F)cc1)[C@]12CCCC(C)(C)C1[C@H](O)[C@@]3(O)OC2` (stereo partly drawn), in the experiment on K562, the IC50 stood at 4630 nM.
The same measure, in the same setting: the figure for `C=C1C(=O)[C@]23[C@H](OC(=O)/C=C/c4ccnc(F)c4)[C@H]1CC[C@H]2[C@]12CCCC(C)(C)[C@H]1C[C@@]3(O)OC2` is 900 nM; for `C=C1C(=O)[C@]23[C@H](OC(=O)CCCc4ccccc4)[C@H]1CC[C@H]2[C@]12C=CCC(C)(C)[C@H]1[C@H](O)[C@@]3(O)OC2` it is 3640 nM.
On the same count and under the same terms, with `C=C1C(=O)[C@]23[C@H](OC(=O)c4ccc(Br)cc4)[C@H]1CC[C@H]2[C@]12CCCC(C)(C)[C@H]1[C@H](O)[C@@]3(O)OC2` the figure was 4380 nM; with `C=C1C(=O)[C@]23[C@H](OC(=O)c4ccc(C)cc4)[C@H]1CC[C@@]2(C)[C@]12CCCC(C)(C)[C@H]1[C@H](O)[C@@]3(O)OC2`, 3010 nM.
Same read-out and setting: the figure for `C=C1C(=O)[C@]23[C@H](OC(=O)/C=C/c4cncnc4)[C@H]1CC[C@H]2[C@]12C=CCC(C)(C)[C@H]1[C@H](O)[C@@]3(O)OC2` is 460 nM; for `C=C1C(=O)[C@]23[C@H](OC(=O)c4ccccc4C)[C@H]1CC[C@H]2[C@]12CCCC(C)(C)[C@H]1[C@H](O)[C@@]3(O)OC2` it is 3290 nM.
For the compound `C=C1C(=O)[C@]23[C@H](OC(=O)/C=C/c4ccsc4)[C@H]1CC[C@H]2[C@]12C=CCC(C)(C)[C@H]1[C@H](O)[C@@]3(O)OC2`, the IC50 in the experiment with K562 was determined as 1340 nM.
On the same count and under the same terms, the figure for `C=C1C(=O)[C@]23[C@H](OC(=O)/C=C/c4ccc[nH]4)[C@H]1CC[C@H]2[C@]12C=CCC(C)(C)[C@H]1[C@H](O)[C@@]3(O)OC2` is 1510 nM.
As for `C=C1C(=O)[C@@]23C(=O)[C@@H](OC(C)=O)[C@@H]4C(C)(C)CC=C[C@@]4(COC(C)=O)[C@@H]2CC[C@@H]1[C@H]3OC(C)=O`, the half-maximal inhibitory concentration (IC50) with MCF7 is 3570 nM; with SMMC-7721 it was 2920 nM; in the experiment with MDA-MB-231, 3140 nM; in the experiment on K562, 1670 nM.
In the case of `C=C1C(=O)[C@]23[C@H](OC(=O)c4ccccc4)[C@H]1CC[C@H]2[C@]12CCCC(C)(C)[C@H]1[C@H](O)[C@@]3(O)OC2`, the IC50 in the experiment with K562 came out at 3450 nM.
For `C=C1C(=O)[C@]23[C@H](OC(C)=O)[C@H]1CC[C@H]2[C@]12CCCC(C)(C)[C@H]1C[C@@]3(O)OC2`, the IC50 in the experiment on K562 was found to be 1200 nM.
For `C=C1C(=O)[C@]23[C@H](O)[C@H]1CC[C@H]2[C@]12C=CCC(C)(C)[C@H]1[C@H](O)[C@@]3(O)OC2`, the IC50 is 3500 nM in the experiment with MCF7, 3760 nM with SMMC-7721, 1880 nM with MDA-MB-231 and 2040 nM in the experiment on K562.
For `C=C1C(=O)[C@]23[C@H](OC(=O)/C=C/c4ccccc4)[C@H]1CC[C@H]2[C@]12C=CCC(C)(C)[C@H]1[C@H](O)[C@@]3(O)OC2`, the IC50 in the experiment with K562 was 710 nM.
On the same count and under the same terms, the figure for `C=C1C(=O)[C@]23[C@H](OC(=O)/C=C/c4cccnc4)[C@H]1CC[C@H]2[C@]12CCCC(C)(C)[C@H]1C[C@@]3(O)OC2` is 560 nM; for `C=C1C(=O)[C@]23[C@H](OC(=O)c4cccc(C)c4)[C@H]1CC[C@H]2[C@]12CCCC(C)(C)[C@H]1[C@H](O)[C@@]3(O)OC2` it is 2830 nM; for `C=C1C(=O)[C@]23[C@H](OC(=O)/C=C/c4ccc5ccccc5n4)[C@H]1CC[C@H]2[C@]12C=CCC(C)(C)[C@H]1[C@H](O)[C@@]3(O)OC2` it is 2900 nM.
The same measure, in the same setting: the figure for `C=C1C(=O)[C@]23[C@H](OC(=O)/C=C/c4cccnc4Br)[C@H]1CC[C@H]2[C@]12C=CCC(C)(C)[C@H]1[C@H](O)[C@@]3(O)OC2` is 3090 nM.
For the compound `C=C1C(=O)[C@]23[C@H](OC(=O)/C=C/c4ccc5ccccc5c4)[C@H]1CC[C@H]2[C@]12C=CCC(C)(C)[C@H]1[C@H](O)[C@@]3(O)OC2`, the IC50 with K562 turned out to be 2880 nM.
On the same count and under the same terms, the figure for `C=C1C(=O)[C@]23[C@H](OC(=O)/C=C/c4cccc5[nH]ccc45)[C@H]1CC[C@H]2[C@]12C=CCC(C)(C)[C@H]1[C@H](O)[C@@]3(O)OC2` is 2580 nM; for `C=C1C(=O)[C@]23[C@H](OC(=O)/C=C/c4ccco4)[C@H]1CC[C@H]2[C@]12C=CCC(C)(C)[C@H]1[C@H](O)[C@@]3(O)OC2` it is 1520 nM.
With `C=C1C(=O)[C@]23[C@H](O)[C@H]1CC[C@H]2[C@]12CCCC(C)(C)[C@H]1C[C@@]3(O)OC2`, the half-maximal inhibitory concentration (IC50) in the experiment with MCF7 came to 2970 nM; in the experiment on SMMC-7721 it was 2960 nM; in the experiment with MDA-MB-231 it was 2510 nM; in the experiment with K562 it was 1980 nM.
On to `C=C1C(=O)[C@]23[C@H](OC(C)=O)[C@H]1CC[C@H]2[C@]12CCCC(C)(C)[C@H]1[C@H](O)[C@@]3(O)OC2`, for which, in the experiment with K562, the IC50 came out at 5340 nM.
Still for that read-out and setting: with `C=C1C(=O)[C@]23[C@H](OC(=O)/C=C/c4ccsc4)[C@H]1CC[C@H]2[C@]12CCCC(C)(C)[C@H]1C[C@@]3(O)OC2` the figure was 800 nM; with `C=C1C(=O)[C@]23[C@H](OC(=O)/C=C/c4ccccc4)[C@H]1CC[C@H]2[C@]12CCCC(C)(C)[C@H]1C[C@@]3(O)OC2`, 2740 nM; with `C=C1C(=O)[C@]23[C@H](OC(=O)/C=C/c4ccccn4)[C@H]1CC[C@H]2[C@]12C=CCC(C)(C)[C@H]1[C@H](O)[C@@]3(O)OC2`, 1600 nM.
Turning to `C=C1C(=O)[C@@]23C(=O)[C@@H](OC(C)=O)[C@@H]4C(C)(C)CCC[C@@]4(COC(C)=O)[C@@H]2CC[C@@H]1[C@H]3OC(C)=O`, the half-maximal inhibitory concentration (IC50) came out at 2060 nM with MCF7, 2270 nM in the experiment on SMMC-7721, 1590 nM in the experiment on MDA-MB-231 and 1030 nM with K562.
For `C=C1C(=O)[C@]23[C@H](OC(=O)/C=C/C)[C@H]1CC[C@H]2[C@]12CCCC(C)(C)[C@H]1[C@H](O)[C@@]3(O)OC2`, in the experiment with K562, the IC50 was 390 nM.
The same measure, in the same setting: with `C=C1C(=O)[C@]23[C@H](OC(=O)/C=C/c4ccc(F)nc4)[C@H]1CC[C@H]2[C@]12C=CCC(C)(C)[C@H]1[C@H](O)[C@@]3(O)OC2` the figure was 830 nM; with `C=C1C(=O)[C@]23[C@H](OC(=O)/C=C/c4ccc5ccccc5c4)[C@H]1CC[C@H]2[C@]12CCCC(C)(C)[C@H]1[C@H](O)[C@@]3(O)OC2`, 3700 nM.
For `C=C1C(=O)[C@]23[C@H](OC(=O)c4ccc(C)cc4)[C@H]1CC[C@H]2[C@]12CCCC(C)(C)[C@H]1C[C@@]3(O)OC2`, the IC50 in the experiment with K562 amounted to 5460 nM.
Take `C=C1C(=O)[C@]23[C@H](OC(=O)/C=C/c4ccc(OC)nc4)[C@H]1CC[C@H]2[C@]12C=CCC(C)(C)[C@H]1[C@H](O)[C@@]3(O)OC2`: in the experiment with K562, the IC50 came out at 1520 nM.
Consider `C=C1C(=O)[C@]23[C@H](O)[C@H]1CC[C@H]2[C@]12CCCC(C)(C)[C@H]1[C@H](O)[C@@]3(O)OC2`, for which the half-inhibitory concentration (IC50) in the experiment on MCF7 stood at 2800 nM; in the experiment on SMMC-7721, 3140 nM; in the experiment with MDA-MB-231 it was 2040 nM; with K562 it was 1230 nM.
As for `C=C1C(=O)[C@]23[C@H](OC(=O)/C=C/c4cccc5c4OCO5)[C@H]1CC[C@H]2[C@]12C=CCC(C)(C)[C@H]1[C@H](O)[C@@]3(O)OC2`, the half-maximal inhibitory concentration (IC50) with K562 was 2800 nM.
On to `C=C1C(=O)[C@]23[C@H](OC(=O)/C=C/c4cccc(Br)n4)[C@H]1CC[C@H]2[C@]12C=CCC(C)(C)[C@H]1[C@H](O)[C@@]3(O)OC2`, for which the concentration for half-maximal inhibition (IC50) in the experiment on K562 turned out to be 1370 nM.
